Results reported in patent US9822130B2, “Triazolo-pyrazinyl derivatives useful as soluble guanylate cyclase activators” (Merck Sharp & Dohme Corp., priority 2014, dated 2017).

Each molecule was assayed against T1, sGC α1/β1 heterodimer stably expressed in CHO-K1 cell line (CHO-K1/sGC) (Homo sapiens, UniProt Q02108+Q02153) (assay: Cell-based sGC Functional Assay (CASA Assay), cGMP generation). Details: CHO-K1/sGC cells, 1 hr at 37° C., cGMP by HTRF, 4P fit; presence or absence of 1 μM DETA-NO not given; read-out: IP (nM) (inflection point).
T1 construct: expressed in transfected cells
T1 sequence (Q02108 1-690): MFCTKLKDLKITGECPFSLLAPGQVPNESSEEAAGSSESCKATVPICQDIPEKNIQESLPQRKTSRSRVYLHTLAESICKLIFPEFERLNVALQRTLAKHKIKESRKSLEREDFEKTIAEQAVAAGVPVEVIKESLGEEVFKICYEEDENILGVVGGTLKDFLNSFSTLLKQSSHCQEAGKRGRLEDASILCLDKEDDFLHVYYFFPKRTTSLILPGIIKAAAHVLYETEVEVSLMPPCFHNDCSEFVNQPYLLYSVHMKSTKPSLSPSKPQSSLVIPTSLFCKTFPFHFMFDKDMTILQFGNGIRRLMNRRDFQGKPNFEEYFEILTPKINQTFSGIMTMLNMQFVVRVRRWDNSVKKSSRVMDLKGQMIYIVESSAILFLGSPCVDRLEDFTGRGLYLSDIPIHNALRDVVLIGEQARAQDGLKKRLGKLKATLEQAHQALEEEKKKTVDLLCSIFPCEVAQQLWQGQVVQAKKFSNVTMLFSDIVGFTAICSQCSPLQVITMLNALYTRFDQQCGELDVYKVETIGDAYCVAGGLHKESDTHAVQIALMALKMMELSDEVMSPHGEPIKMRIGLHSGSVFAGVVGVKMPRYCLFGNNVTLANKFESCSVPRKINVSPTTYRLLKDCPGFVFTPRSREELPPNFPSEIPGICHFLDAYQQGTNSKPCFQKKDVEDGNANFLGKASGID
T1 sequence (Q02153 1-619): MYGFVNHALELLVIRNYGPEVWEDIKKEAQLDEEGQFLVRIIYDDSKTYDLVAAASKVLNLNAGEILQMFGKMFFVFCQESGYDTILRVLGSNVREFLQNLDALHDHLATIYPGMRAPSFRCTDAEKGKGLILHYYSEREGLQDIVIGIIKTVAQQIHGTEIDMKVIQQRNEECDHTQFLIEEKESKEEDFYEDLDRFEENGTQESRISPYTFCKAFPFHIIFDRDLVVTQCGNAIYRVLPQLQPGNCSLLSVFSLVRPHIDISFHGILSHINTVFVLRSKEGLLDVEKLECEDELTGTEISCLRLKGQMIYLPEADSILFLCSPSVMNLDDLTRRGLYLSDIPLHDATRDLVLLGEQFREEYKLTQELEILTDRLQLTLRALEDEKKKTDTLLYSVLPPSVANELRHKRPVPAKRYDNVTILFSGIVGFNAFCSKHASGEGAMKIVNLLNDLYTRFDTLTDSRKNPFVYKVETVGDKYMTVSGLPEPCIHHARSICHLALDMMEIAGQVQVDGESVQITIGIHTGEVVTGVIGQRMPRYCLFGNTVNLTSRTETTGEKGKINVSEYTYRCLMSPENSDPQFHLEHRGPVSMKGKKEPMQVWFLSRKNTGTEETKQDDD
Source text: sGC is a heme-containing enzyme that converts GTP to secondary messenger cGMP. Increases in cGMP levels affect several physiological processes including vasorelaxation through multiple downstream pathways. […] Heme-dependent activators (HDAs) preferentially activate sGC containing a ferrous heme group. To determine the effect of sGC activators on enzyme activity, the CASA assay was developed to monitor the generation of cGMP in a cell line that stably expresses the heterodimeric sGC protein.
A CHO-K1 cell line stably expressing the sGC α1/β1 heterodimer was generated using a standard transfection protocol. CHO-K1 cells were transfected with plasmids pIREShyghsGCα1 and pIRESneo-hsGCβ1 simultaneously using FUGENE reagent. Clones that stably express both subunits were selected with hygromycin and neomycin for ˜2 weeks. Clone #7 was chosen for the assay and was designated CHO-K1/sGC. CHO-K1/sGC cells were maintained in F-K12 medium containing 10% heat-inactivated Fetal Bovine Serum (FBS), 100 μg/mL penicillin/streptomycin, 0.5 mg/mL hygromycin and 0.25 mg/mL G418. The cells were then cryopreserved in LN2. On the day of the assay, cells thawed and resuspended in EBSS Assay Buffer (Sigma, E3024) supplemented with 5 mM MgCl2, 10 mM HEPES (4-(2-hydroxyethyl)piperazine-1-ethanesulfonic acid) and 0.05% BSA (bovine serum albumin) (EAB) and cell density was then adjusted to 4×10^5/mL with EAB, IBMX (3-isobutyl-1-methylxanthin, 0.5 mM) was added to inhibit degradation of cGMP. Compounds were diluted from DMSO stock solutions and added to the assay at a final DMSO concentration of 2.5%. Cells were incubated with compounds in the presence and absence of 1 μM of Diethylenetriamine/nitric oxide adduct (DETA-NO; Sigma, 17018) for 1 hr at 37° C. At the end of the incubation period, the reaction was terminated and the cells were lysed with the detection reagents from Cisbio Kits. The level of intracellular cGMP was determined using an HTRF-based assay kit (CisBio, 62GM2PEC), which detects the displacement of a fluorescence labeled cGMP from its specific antibody. The cGMP produced by test compounds was directly compared to the maximum cGMP production (this value was set to equal 100% activation.) of the published sGC-HDA Compound A:
[drawing 300] (Example 1 in WO 2010/065275, published Jun. 10, 2010). The test compounds' activities were then expressed as a percentage of Compound A, the standard in every experiment. This percent activation was calculated either in the presence or absence of DETA-NO which was then plotted. IP and maximum fold induction was derived using ADA analysis software for 4P fit.
The compounds in the Examples of the instant invention had inflection points (IP) less than or equal to 10 μM and more particularly less than or equal to about 1 μM.

SMILES	EC50
CC1(c2ccccn2)C(=O)Nc2nc(-c3cn4ncnc4c(CCCC(F)(F)F)n3)nc(O)c21 (stereo not shown) [Example 145B, 4-hydroxy-5-methyl-5-(pyridin-2-yl)-2-(8-(4,4,4-trifluorobutyl)-[1,2,4]triazolo[1,5-a]pyrazin-6-yl)-5H-pyrrolo[2,3-d]pyrimidin-6(7H)-one]	1220 nM
CCCCc1nc(-c2nc(N)c3c(n2)NC(=O)C3(c2ccc(C)cn2)C2CC2)cn2ncnc12 (racemic) [Example 72B, 4-amino-2-(8-butyl-[1,2,4]triazolo[1,5-a]pyrazin-6-yl)-5-cyclopropyl-5-(5-methylpyridin-2-yl)-5H-pyrrolo[2,3-d]pyrimidin-6(7H)-one]	28.5 nM
CC1(c2ccc(Cl)cc2)C(=O)Nc2nc(-c3cn4ncnc4c(CCC(F)(F)C(F)(F)F)n3)nc(O)c21 (stereo not shown) [Example 126A, 5-(4-chlorophenyl)-4-hydroxy-5-methyl-2-(8-(3,3,4,4,4-pentafluorobutyl)-[1,2,4]triazolo[1,5-a]pyrazin-6-yl)-5H-pyrrolo[2,3-d]pyrimidin-6(7H)-one]	132 nM
CCCCc1nc(-c2nc(N)c3c(n2)NC(=O)C3(c2ccc(C(F)(F)F)cn2)C2CC2)cn2ncnc12 (stereo not shown) [Example 70A, 4-amino-2-(8-butyl-[1,2,4]triazolo[1,5-a]pyrazin-6-yl)-5-cyclopropyl-5-(5-(trifluoromethyl)pyridin-2-yl)-5H-pyrrolo[2,3-d]pyrimidin-6(7H)-one]	41.8 nM
CC1(c2ccc(F)cn2)C(=O)Nc2nc(-c3cn4ncnc4c(CCCC(F)(F)F)n3)ncc21 (stereo not shown) [Example 176B]	526 nM
CC1(c2ccc(F)cn2)C(=O)Nc2nc(-c3cn4ncnc4c(CCC(F)(F)C(F)(F)F)n3)nc(O)c21 (stereo not shown) [Example 122B, 5-(5-fluoropyridin-2-yl)-4-hydroxy-5-methyl-2-(8-(3,3,4,4,4-pentafluorobutyl)-[1,2,4]triazolo[1,5-a]pyrazin-6-yl)-5H-pyrrolo[2,3-d]pyrimidin-6(7H)-one]	141 nM
Nc1nc(-c2cn3ncnc3c(CCCC(F)(F)F)n2)nc2c1C(c1nnc(C3(F)CC3)o1)(C1CC1)C(=O)N2 (stereo not shown) [Example 108A, 4-amino-5-cyclopropyl-5-(5-(1-fluorocyclopropyl)-1,3,4-oxadiazol-2-yl)-2-(8-(4,4,4-trifluorobutyl)-[1,2,4]triazolo[1,5-a]pyrazin-6-yl)-5H-pyrrolo[2,3-d] pyrimidin-6(7H)-one]	14.7 nM
CCCCc1nc(-c2nc(N)c3c(n2)NC(=O)C3(c2ccc(F)cn2)C2CC2)cn2ncnc12 (stereo not shown) [Example 66A, 4-amino-2-(8-butyl-[1,2,4]triazolo[1,5-a]pyrazin-6-yl)-5-cyclopropyl-5-(5-fluoropyridin-2-yl)-5H-pyrrolo[2,3-d]pyrimidin-6(7H)-one]	34.2 nM

The next lines start with the values.

EC50	SMILES
856 nM	Cc1nc2c(CCC(F)(F)C(F)(F)F)nc(-c3nc(O)c4c(n3)NC(=O)[C@@]4(C)c3ccc(F)cc3)cn2n1 [Example 133B, (S)-5-(4-fluorophenyl)-4-hydroxy-5-methyl-2-(2-methyl-8-(3,3,4,4,4-pentafluorobutyl)-[1,2,4]triazolo[1,5-a]pyrazin-6-yl)-5H-pyrrolo[2,3-d]pyrimidin-6(7H)-one]
72.7 nM	CCCCc1nc(-c2nc(O)c3c(n2)NC(=O)C3(C)c2ccc(Cl)cc2)cn2ncnc12 (stereo not shown) [Example 157A, 2-(8-butyl-[1,2,4]triazolo[1,5-a]pyrazin-6-yl)-5-(4-chlorophenyl)-4-hydroxy-5-methyl-5H-pyrrolo[2,3-d]pyrimidin-6(7H)-one]
36.7 nM	Nc1nc(-c2cn3ncnc3c(CCCC(F)(F)F)n2)nc2c1C(c1ccc(F)cc1)(C1CC1)C(=O)N2 (stereo not shown) [Example 30B, 4-amino-5-cyclopropyl-5-(4-fluorophenyl)-2-(8-(4,4,4-trifluorobutyl)-[1,2,4]triazolo[1,5-a]pyrazin-6-yl)-5H-pyrrolo[2,3-d]pyrimidin-6(7H)-one]
26.4 nM	COc1cccc(Cc2nc(-c3nc(N)c4c(n3)NC(=O)[C@@]4(C)c3ccc(F)cc3)cn3ncnc23)c1 [Example 86B, (S)-4-amino-5-(4-fluorophenyl)-2-(8-(3-methoxybenzyl)-[1,2,4]triazolo[1,5-a]pyrazin-6-yl)-5-methyl-5H-pyrrolo[2,3-d]pyrimidin-6(7H)-one]
128 nM	Nc1nc(-c2cn3ncnc3c(CCCC(F)(F)F)n2)nc2c1C(c1ccc(C(F)(F)F)cn1)(C1CC1)C(=O)N2 (single isomer, unassigned) [Example 2A, 4-Amino-5-cyclopropyl-2-(8-(4,4,4-trifluorobutyl)-[1,2,4]triazolo[1,5-a]pyrazin-6-yl)-5-(5-(trifluoromethyl)pyridin-2-yl)-5H-pyrrolo[2,3-d]pyrimidin-6(7H)-one]
20.1 nM	COc1ccc(C2(C3CC3)C(=O)Nc3nc(-c4cn5ncnc5c(CCCC(F)(F)F)n4)nc(N)c32)nc1 (stereo not shown) [Example 39A, 4-amino-5-cyclopropyl-5-(5-methoxypyridin-2-yl)-2-(8-(4,4,4-trifluorobutyl)-[1,2,4]triazolo[1,5-a]pyrazin-6-yl)-5H-pyrrolo[2,3-d]pyrimidin-6(7H)-one]
38.6 nM	CC1(c2ccc(C#N)cn2)C(=O)Nc2nc(-c3cn4ncnc4c(CCC(F)(F)C(F)(F)F)n3)nc(N)c21 (stereo not shown) [Example 18A, 6-(4-amino-5-methyl-6-oxo-2-(8-(3,3,4,4,4-pentafluorobutyl)-[1,2,4]triazolo[1,5-a]pyrazin-6-yl)-6,7-dihydro-5H-pyrrolo[2,3-d]pyrimidin-5-yl)nicotinonitrile]
344 nM	CC1(c2ccc(Cl)c(F)c2)C(=O)Nc2nc(-c3cn4ncnc4c(CCCC(F)(F)F)n3)nc(O)c21 (stereo not shown) [Example 138B, 5-(4-chloro-3-fluorophenyl)-4-hydroxy-5-methyl-2-(8-(4,4,4-trifluorobutyl)-[1,2,4]triazolo[1,5-a]pyrazin-6-yl)-5H-pyrrolo[2,3-d]pyrimidin-6(7H)-one]
27.2 nM	CCCCc1nc(-c2nc(O)c3c(n2)NC(=O)[C@@]3(C)c2ccc(F)cc2)cn2ncnc12 [Example 154A, (S)-2-(8-butyl-[1,2,4]triazolo[1,5-a]pyrazin-6-yl)-5-(4-fluorophenyl)-4-hydroxy-5-methyl-5,7-dihydro-6H-pyrrolo[2,3-d]pyrimidin-6-one]

Same assay, conditions: CHO-K1/sGC cells, 1 hr at 37° C., cGMP by HTRF; presence or absence of 1 μM DETA-NO not given; read-out: % Act. (percent activation relative to maximum cGMP production of Compound A = 100%)

Emax	SMILES
100%	CC1(c2ccc(F)cn2)C(=O)Nc2nc(-c3cn4ncnc4c(CCC(F)(F)C(F)(F)F)n3)nc(O)c21 (stereo not shown) [Example 122B, 5-(5-fluoropyridin-2-yl)-4-hydroxy-5-methyl-2-(8-(3,3,4,4,4-pentafluorobutyl)-[1,2,4]triazolo[1,5-a]pyrazin-6-yl)-5H-pyrrolo[2,3-d]pyrimidin-6(7H)-one]
100%	CCCCc1nc(-c2nc(O)c3c(n2)NC(=O)[C@@]3(C)c2ccc(F)cc2)cn2ncnc12 [Example 154A, (S)-2-(8-butyl-[1,2,4]triazolo[1,5-a]pyrazin-6-yl)-5-(4-fluorophenyl)-4-hydroxy-5-methyl-5,7-dihydro-6H-pyrrolo[2,3-d]pyrimidin-6-one]
